Results from US5852001A, “Method and compounds for inhibition of ribonucleases” (The Endowment for Research in Human Biology, priority 1996, dated 1998).
pKi: −log10 of the molar value. Like-named read-outs stand apart in the source and are kept apart here.

Key:
RNase A [1] = biological target: T1, RNase A (Bos taurus, UniProt P61823); test: RNA protection assay (tRNA, agarose gel electrophoresis); type: biochemical, bovine; conditions: 0.5 mM inhibitor, 0.2 nM RNase A, pH 7.0, 20 minutes, 25° C.
T1 sequence (P61823 27-150): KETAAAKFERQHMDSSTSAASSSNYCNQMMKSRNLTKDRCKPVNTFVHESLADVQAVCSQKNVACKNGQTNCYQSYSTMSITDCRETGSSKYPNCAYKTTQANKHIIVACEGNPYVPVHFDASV
Protocol: 3 μg of tRNA were incubated in 30 μl of 20 mM Hepes, 130 mM NaCl (pH 7.0) containing 30 μg/ml bovine serum albumin, 0.2 nM RNase A and the inhibitor. After 20 minutes of incubation at 25° C., the reaction mixture was analyzed by agarose gel electrophoresis and staining with ethidium bromide. This assay was chosen since a single endonucleolytic cleavage in a polymeric RNA molecule can produce a large variation of the molecular size which can be easily detected by agarose gel electrophoresis.

RNase A [2] = biological target: T1, RNase A; conditions: pH 7; read-out: inhibition constant Ki (reported); cited from earlier work
RNase A [3] = biological target: T1, RNase A; test: Inhibition of RNase A activity toward CpA, HPLC method
Protocol: Assays were performed in 60 μl of 0.2M Mes (pH 5.9) containing 50 μg/ml nuclease-free bovine serum albumin (obtained from Worthington), 20 μM CpA, and 23-320 pM RNase A. After 14-96 minutes of incubation at 25° C., substrate and products were quantitated by C18 /HPLC with a 20 minute linear gradient from 0 to 5.6% acetonitrile in 0.1% trifluoroacetic acid at a flow rate of 1.5 ml/min recording absorbance at 254 nm. Values of Km /kcat were then calculated (according to the method of Shapiro et al., 1986, Biochemistry 25:7255-7264) and plotted vs. the inhibitor concentration [I]. The Ki value is the -[I] intercept of a three- or four-point plot of Km /kcat, vs. [I] and was obtained by linear regression.

RNase A [4] = biological target: T1, RNase A; type: biochemical, bovine; conditions: for pKi: 25° C.
Protocol: Inhibition was assessed from the dependence of 1/v0 on [I], where v0 represents the velocity measured during the initial 5-10% of the enzymatic reaction and [I] is the inhibitor concentration. Since the substrate concentration used in these assays is well below Km, the -[I] intercept of such a plot should closely approximate Ki for simple inhibition mechanisms.

hRNase-2 = hRNase-2 (Homo sapiens, UniProt P10153); test: Inhibition of human ribonuclease hRNase-2, method of Example IX; type: biochemical
Chain of hRNase-2 (P10153 28-161): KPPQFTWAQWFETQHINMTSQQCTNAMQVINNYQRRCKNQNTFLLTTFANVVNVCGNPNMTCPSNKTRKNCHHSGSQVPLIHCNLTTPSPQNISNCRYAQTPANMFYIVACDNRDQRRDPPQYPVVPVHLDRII
Protocol: (§1) Assays were performed at 25° C. with the dinucleotide cytidylyl-(3',5')-guanosine (75 μM) as substrate in 0.2M Mes (pH 5.9), 0.2M Hepes (pH 7.0), or 0.2M Hepes (pH 8.0), containing 10 μg/ml bovine serum albumin. The decrease in absorbance at 286 nm following the addition of RNase A was continuously monitored. Inhibition was assessed from the dependence of 1/v0 on [I], where v0 represents the velocity measured during the initial 5-10% of the enzymatic reaction and [I] is the inhibitor concentration. Since the substrate concentration used in these assays is well below Km, the -[I] intercept of such a plot should closely approximate Ki for simple inhibition mechanisms.

hRNase-4 = biological target: T2, hRNase-4 (Homo sapiens, UniProt P34096); test: Inhibition of human ribonuclease hRNase-4, method of Example IX
T2 sequence (P34096 29-147): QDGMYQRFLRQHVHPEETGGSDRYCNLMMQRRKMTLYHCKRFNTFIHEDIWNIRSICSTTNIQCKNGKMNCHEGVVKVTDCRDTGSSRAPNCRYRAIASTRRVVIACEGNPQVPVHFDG
Protocol: as §1

[5] = 0.2M Mes pH 5.9, 75 μM CpG, read-out: Ki at indicated pH, pH 5.9
[6] = 0.2M Hepes pH 7.0, 75 μM CpG, read-out: Ki at indicated pH, pH 7
[7] = 0.2M Hepes pH 8.0, 75 μM CpG, read-out: Ki at indicated pH, pH 8

| pKi (RNase A [3]) | Compound | protection of tRNA from the catalytic action of RNase A (RNase A [1]) | pKi (RNase A [4]; [5]) | pKi (RNase A [4]; [6]) | pKi (RNase A [4]; [7]) | further results |
| --- | --- | --- | --- | --- | --- | --- |
| 5.51 | Nc1ccn([C@@H]2O[C@H](CO)[C@@H](O)[C@H]2OP(=O)(O)O)c(=O)n1 [2'-CMP, Cytidine 2'-monophosphate] | partial protection | – | – | – | pKi (RNase A [2]): 3.83 |
| 2.89 | Cc1cn([C@H]2C[C@H](OP(=O)(O)OC[C@H]3O[C@@H](n4cnc5c(N)ncnc54)C[C@@H]3O)[C@@H](CO)O2)c(=O)[nH]c1=O [TpdA, thymidylyl-(3'-5')-2'-deoxyadenosine] | – | – | – | – | – |
| – | Cc1cn([C@H]2C[C@H](OP(=O)(O)OP(=O)(O)OC[C@H]3O[C@@H](n4cnc5c(N)ncnc54)C[C@@H]3O)[C@@H](CO)O2)c(=O)[nH]c1=O [TppdA, thymidine-(3'-Pβ)-5'-diphospho-2'-deoxyadenosine] | – | 5.46 | – | – | – |
| – | Nc1ncnc2c1ncn2[C@@H]1O[C@H](COP(=O)(O)OP(=O)(O)O[C@H]2C[C@H](n3ccc(=O)[nH]c3=O)O[C@@H]2CO)[C@@H](O)[C@H]1OP(=O)(O)O [dUppA2'p, 2'-deoxyuridine-(3'-Pβ)-5'-diphosphoadenosine-2'-phosphate] | – | 6.18 | – | – | fold higher Ki than that for dUppAp (RNase A [4]; pH 5.9): 5 fold |
| – | Nc1ncnc2c1ncn2[C@@H]1O[C@H](COP(=O)(O)OP(=O)(O)O[C@H]2C[C@H](n3ccc(=O)[nH]c3=O)O[C@@H]2CO)[C@@H](OP(=O)(O)O)[C@H]1O [dUppAp, 2'-deoxyuridine-(3'-Pβ)-5'-diphosphoadenosine-3'-phosphate] | – | 6.89 | 5.96 | 4.36 | – |
| 5.25 | Nc1ncnc2c1ncn2[C@@H]1O[C@H](COP(=O)(O)O)[C@@H](OP(=O)(O)O)[C@H]1O [pAp, adenosine 3',5'-diphosphate] | – | – | – | – | – |
| – | Cc1cn([C@H]2C[C@H](OP(=O)(O)OP(=O)(O)OC[C@H]3O[C@@H](n4cnc5c(N)ncnc54)[C@H](O)[C@@H]3OP(=O)(O)O)[C@@H](COP(=O)(O)O)O2)c(=O)[nH]c1=O [pTppAp, 5'-phosphothymidine-(3'-Pβ)-5'-diphosphoadenosine-3'-phosphate] | – | 7.28 | 6.74 | 4.55 | factor by which RNase A inhibition constant is lower than that for ppAp (RNase A [4]; pH 5.9): 4.6; factor by which RNase A inhibition constant is lower than that for ppAp (RNase A [4]; pH 7): 7.2; factor by which RNase A inhibition constant is lower than that for ppAp (RNase A [4]; pH 8): 7.8; pKi (hRNase-2; pH 5.9, read-out: Ki at pH 5.9, hRNase-2): 6.30; pKi (hRNase-4): 6.57 |
| – | Nc1ncnc2c1ncn2[C@@H]1O[C@H](COP(=O)(O)OP(=O)(O)O[C@H]2C[C@H](n3ccc(=O)[nH]c3=O)O[C@@H]2COP(=O)(O)O)[C@@H](OP(=O)(O)O)[C@H]1O [pdUppAp, 5'-phospho-2'-deoxyuridine-(3'-Pβ)-5'-diphosphoadenosine-3'-phosphate] | – | 7.46 | 6.68 | 4.66 | factor by which RNase A inhibition constant is lower than that for ppAp (RNase A [4]; pH 5.9): 6.9; factor by which RNase A inhibition constant is lower than that for ppAp (RNase A [4]; pH 7): 6.2; factor by which RNase A inhibition constant is lower than that for ppAp (RNase A [4]; pH 8): 9.9; pKi (hRNase-2): 6.66; pKi (hRNase-4): 6.55 |
| – | uridine-vanadate | partial protection | – | – | – | pKi (RNase A [2]): 5.00 |

| Compound | pKi (RNase A [3]) | protection of tRNA from the catalytic action of RNase A (RNase A [1]) | pKi (RNase A [4]; [5]) | pKi (RNase A [4]; [6]) | pKi (RNase A [4]; [7]) | further results |
| --- | --- | --- | --- | --- | --- | --- |
| Nc1ncnc2c1ncn2[C@@H]1O[C@H](COP(=O)(O)OP(=O)(O)O)[C@@H](OP(=O)(O)O)[C@H]1O [ppAp, 5'-diphosphoadenosine-3'-phosphate] | 6.62 | fully protecting | 6.62 | 5.89 | 3.66 | pKi (hRNase-2): 6.60 |
